Reference: EP1510220B1 (priority 1993, dated 1994)
Read-outs that look alike come from different tables or passages of the source. Ends that are not written are not given here.

Legend:
Quiescent ED cells = assay: Stimulation of DNA synthesis by mitogens in quiescent ED cells; assay type: cell-based, human; details: [3H]thymidine 16-40 h after stimulation, vs serum-free control; 20% FCS
Description: Quiescent ED cells were exposed to various mitogens, and stimulation of DNA synthesis was determined by [^3H]thymidine incorporation 16-40 h after stimulation. DNA synthesis was stimulated by 20% FCS by 25±6 fold, compared to control cells that remained in serum-free D-MEM throughout. PDGF-BB stimulated ≈3.0 fold, but PDGF-AA stimulated only 2.0 fold.

Quiescent EX cells = assay: Stimulation of DNA synthesis by mitogens in quiescent EX cells; assay type: cell-based, human; details: [3H]thymidine 16-32 h after stimulation, vs serum-free control; 20% FCS, IGF-1 25 ng/ml, EGF and bFGF 100 ng/ml, TGF-beta 10 ng/ml, AII and ET-1 100 nM
Description: Quiescent EX cells were then exposed to various mitogens, and stimulation of DNA synthesis was determined by incorporation of [^3H]thymidine 16-32 h after stimulation. DNA synthesis was stimulated by 20% FCS by 8.0±1.5 fold, compared to control cells that remained in serum-free D-MEM throughout. PDGF-BB and PDGF-AA caused a ≈ 3.0 fold stimulation of DNA synthesis. Insulin-like growth factor (IGF-1; 25 ng/ml) provided a 1.2 fold stimulation.

[1] = tested on: B054 cells (baboon smooth muscle cells); assay: cells; assay type: cell-based; details: for minimal effective concentration: Papio anubis
[2] = tested on: B054 cells (baboon smooth muscle cells); assay: cells; assay type: cell-based; details: Papio anubis, read-out: minimum effective dose (MED), protein synthesis assay
[3] = tested on: Vascular smooth muscle cells

`CC[C@H](C)[C@H](NC(=O)[C@H](Cc1ccc(O)cc1)NC(=O)[C@@H](NC(=O)[C@H](CCCNC(=N)N)NC(=O)[C@@H](N)CC(=O)O)C(C)C)C(=O)N[C@@H](Cc1cnc[nH]1)C(=O)N1CCC[C@H]1C(=O)N[C@@H](Cc1ccccc1)C(=O)O` [AII, angiotensin II] was tested, and the “stimulation of DNA synthesis” value (Quiescent ED cells) was “did not stimulate DNA synthesis” and the “stimulation of DNA synthesis” value (Quiescent EX cells) was “did not significantly stimulate DNA synthesis”.
In the case of `CC(=O)O[C@@H]1/C=C\[C@@](C)(O)C(=O)[C@@H](C)C/C=C\[C@H]2[C@H](O)C(C)=C(C)[C@H]3C(Cc4ccccc4)NC(=O)[C@]132` (stereo partly shown) [cytochalasin C], the “minimum effective dose (MED), DNA synthesis assay” value [1] is reported as 0.01 µg/mL.
For `CN[C@@H]1C[C@H]2O[C@@](C)([C@@H]1OC)n1c3ccccc3c3c4c(c5c6ccccc6n2c5c31)C(=O)NC4` [staurosporin], the minimal effective concentration ([2]; 5 min) was 0.1 µg/mL, the minimal effective concentration ([2]; 24 h) was 0.01 µg/mL and the minimal effective concentration ([1]; 5 min, read-out: minimum effective dose (MED), DNA assay) was 0.001 µg/mL. It also gave a minimal effective concentration ([1]; 24 h, read-out: minimum effective dose (MED), DNA synthesis assay) of 0.001 µg/mL and a cytotoxicity grade [3] of 2.
For “endothelin-1 (CSCSSLMDKECVYFCHLDIIW; ends and bridges not checked; cysteine pairing not given here; UniProt P05305 53-73, looked up) [ET-1]”, the “stimulation of DNA synthesis” value (Quiescent ED cells) was “did not stimulate DNA synthesis” and the “stimulation of DNA synthesis” value (Quiescent EX cells) was “did not significantly stimulate DNA synthesis”.
